This data set in a line: Dissolution test of samples filled in hard gelatin capsules (Ph. Eur. Type 2 device). It counts as physicochemical. The conditions noted are these: Example 2 samples (pure silybin/silydianin), tested as described for Example 1 (capsule, pH 7.5, 100 rpm). Here is the method:
For this purpose 100 mg of each Samples were filled in hard gelatin capsules (number 00). Individual capsules underwent the test on the device as per the Ph. Eur. Type 2 in 2 litres of the dissolution medium pH 7.5 and under 100 revolutions per minute.

`COc1cc(C2Oc3cc([C@H]4Oc5cc(O)cc(O)c5C(=O)[C@@H]4O)ccc3OC2CO)ccc1O` (some centres unmarked) [Silybin, silybin]: the “Dissolution Values, 30 minutes” value (after 30 minutes) is 4.6%. Moreover, for the setting “after 60 minutes”, the “Dissolution Values, 60 minutes” value is 4.5%.
